Here are results for 15 compounds from PubChem BioAssay (NCI).

Test systems include A549 NSCLC; EKVX NSCLC; OVCAR-5 ovarian; HCT-116 colon; UACC-62 melanoma; MALME-3M melanoma; SW-620 colon; MOLT-4 leukemia; TK-10 renal; SNB-75 CNS.
Holding throughout (assay): NCI tumour cell line growth inhibition, 48 h

Each structure is given as a SMILES string.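 Values below derive from 48-hour exposures of cells grown in 96-well plates, with endpoints linearly interpolated between the two concentrations bracketing the appropriate inhibition level. GI50 = concentration required for 50% inhibition of growth. The concentration for full growth arrest is given as TGI.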

Consider `Cc1cc(NS(=O)(=O)c2ccc(NC(=O)c3cccc4c(=O)c5ccccc5[nH]c34)cc2)no1`, for which the TGI was more than 100 µM in the assay on A549 NSCLC; more than 100 µM in the assay with EKVX NSCLC; more than 100 µM with OVCAR-5 ovarian; more than 100 µM in the assay with HCT-116 colon; 66.8 µM with UACC-62 melanoma; more than 100 µM with MALME-3M melanoma. Further, the TGI with SW-620 colon is more than 100 µM; with MOLT-4 leukemia, more than 100 µM; in the assay on TK-10 renal it was more than 100 µM; in the assay with SNB-75 CNS it was 85.4 µM.
For the compound `CCC(C)(O)c1cn(-c2cccc(S(=O)(=O)O)c2)nn1` (centres undefined), the TGI in the assay on A549 NSCLC, in the assay with EKVX NSCLC, in the assay with OVCAR-5 ovarian, in the assay on HCT-116 colon, in the assay on UACC-62 melanoma and in the assay with MALME-3M melanoma was more than 100 µM throughout. For the same compound, the TGI in the assay on SW-620 colon, with MOLT-4 leukemia, with TK-10 renal and in the assay on SNB-75 CNS was more than 100 µM each time.
On to `O=C(C[C@@H](C(=O)NCc1cccc(C(F)(F)F)c1)N1C(=O)[C@@H](N2C(=O)OC[C@@H]2c2ccccc2)[C@H]1/C=C/c1ccccc1)NC1CCN(Cc2ccccc2)CC1`, for which the GI50 is 5.86 µM in the assay on A549 NSCLC; 15.1 µM with EKVX NSCLC; 13 µM in the assay on OVCAR-5 ovarian; 1.95 µM in the assay on HCT-116 colon; 3.34 µM with UACC-62 melanoma; 2.78 µM with MALME-3M melanoma. For the same compound, the GI50 in the assay with SW-620 colon is 3.91 µM; in the assay on MOLT-4 leukemia, 1.59 µM; in the assay with TK-10 renal, 10.2 µM; with SNB-75 CNS, 6.21 µM. The TGI with A549 NSCLC was 21.4 µM; in the assay on EKVX NSCLC it was 41.7 µM; in the assay on OVCAR-5 ovarian it was 29.9 µM; with HCT-116 colon it was 4.04 µM; in the assay on UACC-62 melanoma, 13.8 µM; in the assay on MALME-3M melanoma, 7.39 µM. Further, the TGI stood at 17.3 µM in the assay on SW-620 colon, 6.79 µM with MOLT-4 leukemia, 23.4 µM in the assay with TK-10 renal and 23 µM in the assay on SNB-75 CNS.
For the compound `CCOC(=O)[C@H]1Nc2ccc(C)cc2C2c3ccccc3CC21` (some centres undefined), the TGI in the assay with A549 NSCLC, with EKVX NSCLC, with OVCAR-5 ovarian, with HCT-116 colon, in the assay on UACC-62 melanoma and in the assay with MALME-3M melanoma was more than 100 µM in each case. In addition, the TGI in the assay on SW-620 colon, in the assay with MOLT-4 leukemia, in the assay with TK-10 renal and in the assay on SNB-75 CNS was more than 100 µM throughout.
`CNC=O.[O]=[Ge].[O]=[Ge].[O]=[Ge].[O]=[Ge][OH].[O]=[Ge][OH]`: the TGI with A549 NSCLC, in the assay on EKVX NSCLC, with OVCAR-5 ovarian, in the assay with HCT-116 colon, with UACC-62 melanoma and with MALME-3M melanoma was more than 100 µM in each case. The TGI with SW-620 colon, in the assay on MOLT-4 leukemia, in the assay with TK-10 renal and in the assay with SNB-75 CNS was more than 100 µM in each case.
Turning to `CCN(CC)C(=O)C/C(C)=N/NC(=O)c1ccncc1`, the TGI with A549 NSCLC, with EKVX NSCLC, with OVCAR-5 ovarian, in the assay on HCT-116 colon, with UACC-62 melanoma and in the assay with MALME-3M melanoma was more than 100 µM each time. Further, the TGI with SW-620 colon, in the assay with MOLT-4 leukemia, in the assay with TK-10 renal and with SNB-75 CNS was more than 100 µM each time.
As to `COc1ccc(OC(=O)O[C@H]2[C@H](O[C@H]3[C@@H](O)COC(O[C@H]4C[C@H]5[C@@H]6CC=C7C[C@@H](O)CC[C@]7(C)[C@H]6CC[C@]5(C)[C@H]4[C@H](C)C(=O)CCC(C)C)[C@@H]3OC(C)=O)OC[C@@H](O)[C@@H]2O)cc1` (some centres undefined), the GI50 in the assay with A549 NSCLC is 0.145 µM; with EKVX NSCLC, 1.64 µM; in the assay with OVCAR-5 ovarian it was 0.89 µM; in the assay on HCT-116 colon, 0.0621 µM; in the assay with UACC-62 melanoma, 0.0171 µM; in the assay with MALME-3M melanoma, 0.122 µM. Moreover, the GI50 in the assay with SW-620 colon was 0.0295 µM; in the assay on MOLT-4 leukemia it was 0.0153 µM; in the assay with TK-10 renal, 2.24 µM; with SNB-75 CNS, less than 0.01 µM. Besides, the TGI in the assay on A549 NSCLC was 21.9 µM; in the assay with EKVX NSCLC it was 19.6 µM; in the assay on OVCAR-5 ovarian it was 15.9 µM; in the assay with HCT-116 colon, 14.1 µM; in the assay with UACC-62 melanoma it was 0.0516 µM; in the assay on MALME-3M melanoma, 3.84 µM. Also, the TGI with SW-620 colon was 1.13 µM; in the assay with TK-10 renal, 21.1 µM; in the assay with SNB-75 CNS it was 10.9 µM.
As to `COc1ccc(/C(=N/Nc2ccc([N+](=O)[O-])cc2)Sc2cc(Cl)c(C)cc2S(N)(=O)=O)cc1`, the GI50 is 5.25 µM with A549 NSCLC; 3.34 µM in the assay with EKVX NSCLC; 7.59 µM with OVCAR-5 ovarian; 2.31 µM with HCT-116 colon; 3.02 µM in the assay with UACC-62 melanoma; 3.13 µM in the assay with MALME-3M melanoma. Also, the GI50 was 5.86 µM in the assay on SW-620 colon, 5.02 µM in the assay on MOLT-4 leukemia, 2.47 µM with TK-10 renal and 2.68 µM in the assay with SNB-75 CNS. The TGI with A549 NSCLC came out at 18.1 µM; in the assay with EKVX NSCLC, 10.9 µM; in the assay on OVCAR-5 ovarian, 19.2 µM; in the assay with HCT-116 colon, 5.48 µM; with UACC-62 melanoma, 8.54 µM; in the assay on MALME-3M melanoma it was 10.1 µM. For the same compound, the TGI was determined as 18.2 µM with SW-620 colon, 16.5 µM in the assay with MOLT-4 leukemia, 6.73 µM with TK-10 renal and 6.39 µM in the assay on SNB-75 CNS.
`COC(=O)C(=O)C(C(=O)C(=O)Nc1ccc(C)cc1C)c1nc2ccccc2[nH]c1=O` (centres undefined): the TGI in the assay with A549 NSCLC, with EKVX NSCLC, with OVCAR-5 ovarian, with HCT-116 colon, in the assay with UACC-62 melanoma and in the assay on MALME-3M melanoma was more than 100 µM throughout. Besides, the TGI is more than 100 µM with SW-620 colon, more than 100 µM in the assay with MOLT-4 leukemia, more than 100 µM in the assay with TK-10 renal and 69.2 µM in the assay on SNB-75 CNS.
With `N#Cc1cnsc1`, the TGI in the assay with A549 NSCLC, with EKVX NSCLC, in the assay with OVCAR-5 ovarian, in the assay on HCT-116 colon, with UACC-62 melanoma and in the assay with MALME-3M melanoma was more than 100 µM each time. In addition, the TGI in the assay with SW-620 colon, in the assay with MOLT-4 leukemia, in the assay with TK-10 renal and in the assay with SNB-75 CNS was more than 100 µM throughout.
Consider `COc1ccc2cc(C(=O)/C=C/c3cccc(OC)c3OC)ccc2c1`, for which the GI50 in the assay with A549 NSCLC is 7.11 µM; in the assay with EKVX NSCLC it was 17.9 µM; in the assay with OVCAR-5 ovarian, 20.2 µM; with HCT-116 colon, 3.62 µM; with UACC-62 melanoma it was 2.77 µM; with MALME-3M melanoma, 10.4 µM. Also, the GI50 in the assay on SW-620 colon was 9.53 µM; in the assay with MOLT-4 leukemia, 3.12 µM; with TK-10 renal, 25.3 µM; in the assay with SNB-75 CNS, 18.5 µM. For the same compound, the TGI with A549 NSCLC came out at 24.8 µM; in the assay on EKVX NSCLC, 36.7 µM; in the assay on OVCAR-5 ovarian, 40.7 µM; with HCT-116 colon, 13.3 µM; in the assay on UACC-62 melanoma, 11 µM; in the assay on MALME-3M melanoma it was 29.4 µM. The TGI in the assay with SW-620 colon was determined as 29.1 µM; in the assay with MOLT-4 leukemia, 15.6 µM; in the assay on TK-10 renal it was 65.1 µM; in the assay on SNB-75 CNS it was 35.6 µM.
Regarding `COc1ccc(C(=O)/C=C/c2cccnc2Nc2cc(OC)c(OC)c(OC)c2)cc1`, the GI50 in the assay with A549 NSCLC is 1.67 µM; in the assay on EKVX NSCLC, 5.11 µM; in the assay with OVCAR-5 ovarian it was 3.36 µM; with HCT-116 colon, 0.54 µM; with UACC-62 melanoma, 1.71 µM; with MALME-3M melanoma, 6.32 µM. The GI50 with SW-620 colon was 0.349 µM; in the assay on MOLT-4 leukemia, 2.26 µM; in the assay with TK-10 renal, 1.83 µM; in the assay with SNB-75 CNS, 3.4 µM. Moreover, the TGI with A549 NSCLC is 18.5 µM; in the assay with EKVX NSCLC it was 19.2 µM; in the assay on OVCAR-5 ovarian it was 10 µM; in the assay on HCT-116 colon it was 2.1 µM; in the assay with UACC-62 melanoma, 4.38 µM; with MALME-3M melanoma, 20.1 µM. Further, the TGI in the assay on SW-620 colon came out at 1.59 µM; in the assay with MOLT-4 leukemia, 7.64 µM; with TK-10 renal, 5.53 µM; in the assay on SNB-75 CNS, 17.6 µM.
For the compound `O=C(/C=C/c1ccccc1Cl)c1ccccc1Cl`, the TGI in the assay with A549 NSCLC was 61.5 µM; in the assay on EKVX NSCLC, 44.4 µM; in the assay on OVCAR-5 ovarian, 46.4 µM; in the assay with HCT-116 colon, 28.5 µM; with UACC-62 melanoma, 36.7 µM; in the assay with MALME-3M melanoma, 69.4 µM. For the same compound, the TGI was 26.2 µM in the assay on SW-620 colon, 60 µM with MOLT-4 leukemia, more than 100 µM in the assay on TK-10 renal and 74.9 µM in the assay with SNB-75 CNS.
With `COC(=O)C1=C(c2ccc3c(c2)OCO3)O[C@H](c2ccc3c(c2)OCO3)[C@H]1COC(C)=O`, the TGI with A549 NSCLC, in the assay on EKVX NSCLC, with OVCAR-5 ovarian, with HCT-116 colon, in the assay with UACC-62 melanoma and with MALME-3M melanoma was more than 100 µM in each case. Also, the TGI in the assay with SW-620 colon, in the assay with MOLT-4 leukemia, with TK-10 renal and with SNB-75 CNS was more than 100 µM each time.
Turning to `CC(C)(C)C1=CC(=CC=C2C=CN(CCCCCCCCCCCO)C=C2)C=C(C(C)(C)C)C1=O`, the TGI in the assay with A549 NSCLC worked out at 3.58 µM; in the assay with EKVX NSCLC, 5.61 µM; in the assay with OVCAR-5 ovarian, 6.52 µM; in the assay on HCT-116 colon, 3.05 µM; with UACC-62 melanoma it was 2.96 µM; in the assay with MALME-3M melanoma, 3.51 µM. Further, the TGI in the assay on SW-620 colon worked out at 3.08 µM; in the assay with MOLT-4 leukemia it was 4.74 µM; in the assay with TK-10 renal, 3.67 µM; with SNB-75 CNS it was 5.4 µM.
